The values that follow come from patent US9795140B2, “Molecules having pesticidal utility, and intermediates, compositions, and processes, related thereto” (priority 2015, dated 2017).

Like-named read-outs stand apart in the source and are kept apart here.

A word on the mortality: it is the percentage killed.

Common to all, as to type: in vivo
Data set [1] has as its system Yellow Fever Mosquito (Aedes aegypti, AEDSAE). Kind of data set: Bioassay on Yellow Fever Mosquito (YFM) larvae, 96-well plate. The conditions noted are these: about 1 day-old larvae, room temperature, 3 days, scored on mortality. In short, it runs like this: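 Aedes aegypti larvae (about 1 day old) in liver-powder water were added to plates dispensed from DMSO master plates (4000 ppm stock) diluted with 90:10 water/acetone; six replicate plates per master. Lidded plates were held at room temperature for 3 days, then each well was scored for mortality.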

Data set [2] has as its system Cabbage Looper (Trichoplusia ni, TRIPNI). The data set is described as follows: Bioassay on Cabbage Looper (CL), 128-well diet tray assay. The conditions noted are these: 168 h, read-out: CL % Control (or Mortality) rating. In short, it runs like this:
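Second-instar T. ni larvae (one to five per well) were placed on artificial diet treated with 50 μg/cm^2 compound, applied in 90:10 acetone-water and dried. Trays were held five to seven days at 25 °C under 14:10 light-dark. Percent mortality per well was averaged over eight wells.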

In data set [3] the test system is Beet Armyworm (Spodoptera exigua, LAPHEG). The data set is described as follows: Bioassay on Beet Armyworm (BAW), 128-well diet tray assay. The conditions noted are these: 168 h, read-out: BAW % Control (or Mortality) rating. In short, it runs like this: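 Second-instar larvae, one to five per well, placed on artificial diet surface-treated with 50 μg/cm^2 compound applied in 90:10 acetone-water and dried. Held 5–7 days at 25° C., 14:10 light-dark. Percent mortality recorded per well and averaged over eight wells.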

Where [4] appears, read: 50 μg/cm^2 on artificial diet, second instar larvae, 25° C., five to seven days, average of eight wells.

Take `O=C(NCCC(F)(F)F)c1cc(NC(=O)[C@H]2[C@H](c3cc(Cl)cc(Cl)c3)C2(Cl)Cl)c(Cl)cc1Cl` (relative stereo) [F102, trans-2,4-Dichloro-5-(2,2-dichloro-3-(3,5-dichlorophenyl)cyclopropane-1-carboxamido)-N-(3,3,3-trifluoropropyl)benzamide]: the “YFM % Control (or Mortality) rating” value in data set [1] is “A (80-100)”. Moreover, the mortality at 50 µg/cm2 in data set [2] (setting [4]) is 0%; in data set [3] (setting [4]) it was 0 to 50%.

For the compound `CCNC(=O)c1cc(NC(=O)[C@H]2[C@H](c3ccc(F)c(Cl)c3)C2(Cl)Cl)ccc1Cl` (relative stereo) [F103, trans-2-Chloro-5-(2,2-dichloro-3-(3-chloro-4-fluorophenyl)cyclopropane-1-carboxamido)-N-ethylbenzamide], the “YFM % Control (or Mortality) rating” value in data set [1] is listed as “A (80-100)”. Also, the mortality at 50 µg/cm2 in data set [2] (setting [4]) and in data set [3] (setting [4]) was 50 to 100% throughout.

For `O=C(NCCF)c1cc(NC(=O)[C@H]2[C@H](c3ccc(F)c(Cl)c3)C2(Cl)Cl)ccc1Cl` (relative stereo) [F104, trans-2-Chloro-5-(2,2-dichloro-3-(3-chloro-4-fluorophenyl)cyclopropane-1-carboxamido)-N-(2-fluoroethyl)benzamide], the “YFM % Control (or Mortality) rating” value in data set [1] is reported as “A (80-100)”. Moreover, the mortality at 50 µg/cm2 in data set [2] (setting [4]) and in data set [3] (setting [4]) was 50 to 100% in each case.

Consider `O=C(NCC(F)(F)F)c1cc(NC(=O)[C@H]2[C@H](c3ccc(F)c(Cl)c3)C2(Cl)Cl)ccc1Cl` (relative stereo) [F105, trans-2-Chloro-5-(2,2-dichloro-3-(3-chloro-4-fluorophenyl)cyclopropane-1-carboxamido)-N-(2,2,2-trifluoroethyl)benzamide], for which the “YFM % Control (or Mortality) rating” value in data set [1] is reported as “A (80-100)”. Also, the mortality at 50 µg/cm2 in data set [2] (setting [4]) and in data set [3] (setting [4]) was 50 to 100% throughout.

With `CCCNC(=O)c1cc(NC(=O)[C@H]2[C@H](c3ccc(F)c(Cl)c3)C2(Cl)Cl)ccc1Cl` (relative stereo) [F106, trans-2-Chloro-5-(2,2-dichloro-3-(3-chloro-4-fluorophenyl)cyclopropane-1-carboxamido)-N-propylbenzamide], the “YFM % Control (or Mortality) rating” value in data set [1] is reported as “A (80-100)”. In addition, the mortality at 50 µg/cm2 in data set [2] (setting [4]) and in data set [3] (setting [4]) was 50 to 100% each time.

In the case of `O=C(NCCC(F)(F)F)c1cc(NC(=O)[C@H]2[C@H](c3ccc(F)c(Cl)c3)C2(Cl)Cl)ccc1Cl` (relative stereo) [F107, trans-2-Chloro-5-(2,2-dichloro-3-(3-chloro-4-fluorophenyl)cyclopropane-1-carboxamido)-N-(3,3,3-trifluoropropyl)benzamide], the “YFM % Control (or Mortality) rating” value in data set [1] is “B (More than 0-Less than 80)”. In addition, the mortality at 50 µg/cm2 in data set [2] (setting [4]) and in data set [3] (setting [4]) was 50 to 100% each time.

On to `O=C(NCC(F)(F)F)c1cc(NC(=O)[C@H]2[C@H](c3ccc(F)c(F)c3)C2(Cl)Cl)ccc1Cl` (relative stereo) [F108, 2-chloro-5-(trans-2,2-dichloro-3-(3,4-difluorophenyl)cyclopropane-1-carboxamido)-N-(2,2,2-trifluoroethyl)benzamide], for which the “YFM % Control (or Mortality) rating” value in data set [1] is listed as “A (80-100)”. Besides, the mortality at 50 µg/cm2 in data set [2] and in data set [3] was 50 to 100% each time.

Consider `O=C(NCC(F)(F)F)c1cc(NC(=O)[C@H]2[C@H](c3ccc(Cl)c(Br)c3)C2(Cl)Cl)ccc1Cl` (relative stereo) [F109, 5-(trans-3-(3-Bromo-4-chlorophenyl)-2,2-dichlorocyclopropane-1-carboxamido)-2-chloro-N-(2,2,2-trifluoroethyl)benzamide], for which the “YFM % Control (or Mortality) rating” value in data set [1] is reported as “A (80-100)”. Besides, the mortality at 50 µg/cm2 in data set [2] (setting [4]) and in data set [3] (setting [4]) was 50 to 100% each time.

Turning to `O=C(NCC(F)(F)F)c1cc(NC(=O)[C@H]2[C@H](c3ccc(Br)c(Br)c3)C2(Cl)Cl)ccc1Cl` (relative stereo) [F111, 2-Chloro-5-(trans-2,2-dichloro-3-(3,4-dibromophenyl)cyclopropane-1-carboxamido)-N-(2,2,2-trifluoroethyl)benzamide], the “YFM % Control (or Mortality) rating” value in data set [1] was “A (80-100)”. The mortality at 50 µg/cm2 in data set [2] (setting [4]) and in data set [3] (setting [4]) was 50 to 100% in each case.

For the compound `O=C(NCC(F)(F)F)c1cc(NC(=O)[C@H]2[C@H](c3ccc(C(F)(F)F)c(F)c3)C2(Cl)Cl)ccc1Cl` (relative stereo) [F112, 2-Chloro-5-(trans-2,2-dichloro-3-(3-fluoro-4-(trifluoromethyl)phenyl)cyclopropane-1-carboxamido)-N-(2,2,2-trifluoroethyl)benzamide], in data set [1], the “YFM % Control (or Mortality) rating” value is “A (80-100)”. Further, the mortality at 50 µg/cm2 in data set [2] (setting [4]) and in data set [3] (setting [4]) was 50 to 100% in each case.

On to `O=C(NCC(F)(F)F)c1cc(NC(=O)[C@H]2[C@H](c3ccc(Br)c(F)c3)C2(Cl)Cl)ccc1Cl` (relative stereo) [F113, 5-(trans-3-(4-Bromo-3-fluorophenyl)-2,2-dichlorocyclopropane-1-carboxamido)-2-chloro-N-(2,2,2-trifluoroethyl)benzamide], for which the “YFM % Control (or Mortality) rating” value in data set [1] is given as “A (80-100)”. Further, the mortality at 50 µg/cm2 in data set [2] (setting [4]) and in data set [3] (setting [4]) was 50 to 100% in each case.

Consider `O=C(NCC(F)(F)F)c1cc(NC(=O)[C@H]2[C@H](c3ccc(C(F)(F)F)c(Br)c3)C2(Cl)Cl)ccc1Cl` (relative stereo) [F114, 5-(trans-3-(3-Bromo-4-(trifluoromethyl)phenyl)-2,2-dichlorocyclopropane-1-carboxamido)-2-chloro-N-(2,2,2-trifluoroethyl)benzamide], for which, in data set [1], the “YFM % Control (or Mortality) rating” value is reported as “A (80-100)”. Besides, the mortality at 50 µg/cm2 in data set [2] (setting [4]) and in data set [3] (setting [4]) was 50 to 100% each time.

As to `O=C(NCC(F)(F)F)c1cc(NC(=O)[C@H]2[C@H](c3ccc(Br)c(C(F)(F)F)c3)C2(Cl)Cl)ccc1Cl` (relative stereo) [F115, 5-(trans-3-(4-Bromo-3-(trifluoromethyl)phenyl)-2,2-dichlorocyclopropane-1-carboxamido)-2-chloro-N-(2,2,2-trifluoroethyl)benzamide], the “YFM % Control (or Mortality) rating” value in data set [1] is “A (80-100)”. Also, the mortality at 50 µg/cm2 in data set [2] (setting [4]) and in data set [3] (setting [4]) was 50 to 100% in each case.

As for `O=C(NCC(F)(F)F)c1cc(NC(=O)[C@H]2[C@H](c3ccc(C(F)(F)F)c(Cl)c3)C2(Cl)Cl)ccc1Cl` (relative stereo) [F116, 2-Chloro-5-(trans-2,2-dichloro-3-(3-chloro-4-(trifluoromethyl)phenyl)cyclopropane-1-carboxamido)-N-(2,2,2-trifluoroethyl)benzamide], the “YFM % Control (or Mortality) rating” value in data set [1] is recorded as “A (80-100)”. Further, the mortality at 50 µg/cm2 in data set [2] (setting [4]) and in data set [3] (setting [4]) was 50 to 100% in each case.

As to `O=C(NCC(F)(F)F)c1cc(NC(=O)[C@H]2[C@H](c3ccc(Cl)c(C(F)(F)F)c3)C2(Cl)Cl)ccc1Cl` (relative stereo) [F117, 2-Chloro-5-(trans-2,2-dichloro-3-(4-chloro-3-(trifluoromethyl)phenyl)cyclopropane-1-carboxamido)-N-(2,2,2-trifluoroethyl)benzamide], the “YFM % Control (or Mortality) rating” value in data set [1] is “A (80-100)”. For the same compound, the mortality at 50 µg/cm2 in data set [2] (setting [4]) and in data set [3] (setting [4]) was 50 to 100% each time.

With `O=C(NCC(F)(F)F)c1cc(NC(=O)[C@H]2[C@H](c3ccc(F)c(Br)c3)C2(Cl)Cl)ccc1Cl` (relative stereo) [F118, 5-(trans-3-(3-Bromo-4-fluorophenyl)-2,2-dichlorocyclopropane-1-carboxamido)-2-chloro-N-(2,2,2-trifluoroethyl)benzamide], in data set [1], the “YFM % Control (or Mortality) rating” value is listed as “A (80-100)”. Besides, the mortality at 50 µg/cm2 in data set [2] (setting [4]) and in data set [3] (setting [4]) was 50 to 100% in each case.

`O=C(NCC(F)(F)F)c1cc(NC(=O)[C@H]2[C@H](c3ccc(F)c(C(F)(F)F)c3)C2(Cl)Cl)ccc1Cl` (relative stereo) [F119, 2-Chloro-5-(trans-2,2-dichloro-3-(4-fluoro-3-(trifluoromethyl)phenyl)cyclopropane-1-carboxamido)-N-(2,2,2-trifluoroethyl)benzamide]: in data set [1], the “YFM % Control (or Mortality) rating” value was “A (80-100)”. Also, the mortality at 50 µg/cm2 in data set [2] (setting [4]) and in data set [3] (setting [4]) was 50 to 100% in each case.

Take `O=C(NCC(F)(F)F)c1cc(NC(=O)[C@H]2[C@H](c3ccc(Cl)c(F)c3)C2(Cl)Cl)ccc1Cl` (relative stereo) [F120, 2-Chloro-5-(trans-2,2-dichloro-3-(4-chloro-3-fluorophenyl)cyclopropane-1-carboxamido)-N-(2,2,2-trifluoroethyl)benzamide]: in data set [1], the “YFM % Control (or Mortality) rating” value is recorded as “A (80-100)”. For the same compound, the mortality at 50 µg/cm2 in data set [2] (setting [4]) and in data set [3] (setting [4]) was 50 to 100% throughout.

Turning to `O=C(NCC(F)(F)F)c1cc(NC(=O)[C@H]2[C@H](c3cc(F)cc(F)c3)C2(Cl)Cl)ccc1Cl` (relative stereo) [F121, 2-Chloro-5-(trans-2,2-dichloro-3-(3,5-difluorophenyl)cyclopropane-1-carboxamido)-N-(2,2,2-trifluoroethyl)benzamide], in data set [1], the “YFM % Control (or Mortality) rating” value was “A (80-100)”. The mortality at 50 µg/cm2 in data set [2] (setting [4]) and in data set [3] (setting [4]) was 50 to 100% each time.
